{
  "source": "patent US10792260B2",
  "about": "“Retinopathy treatment” (CHS Pharma, Inc., priority 2013, dated 2020)",
  "key": {"[1]": {"system": "ARPE19 cells", "experiment": "TBHP induced oxidative stress, cell viability by MTS assay", "details": "for protection against TBHP damage as measured by cell viability: 24 hours pretreatment, varying concentrations of TBHP", "quoted_text": "Cell culture studies using RPE cells—For cell culture experiments human RPE cell line ARPE19 (ATCC # CRL 2302) purchased from American Type Culture Collection (Rockville, Md.) was used. Cells were maintained in DMEM F-12 supplemented with L-glutamine. The culture media also contained 10% fetal bovine serum, 100 units/ml penicillin and 100 ug/ml streptomycin at 37 C and 5% CO2. Cells from passages two to five were treated with either no drug or a range of concentrations of the experimental drugs prior to exposing them to oxidative stress. Oxidative stress was induced chemically by adding tert-butyl hydrogen peroxide (TBHP) or by exposing the cells to UVB light. ARPE19 cells were plated in 96 well plates at a concentration of 10,000 cells/well. Change in cellular viability was measured using the MTS assay kit from Promega (Madison, Wis.).\nExperiments involving TBHP induced oxidative stress—ARPE19 cells were grown for 24 hours in 96 well plates in DMEM F-12 complete media. Then they were either treated with no drug or pre-incubated with the experimental drug for 24 hours. The next day the cells were exposed to a range of concentrations (175 μM to 300 μM) of TBHP for 24 hours. On the following day cell viability was measured by the MTS assay (Promega) according to the manufacturer's protocol and which was measured by absorbance at 490 nm using a colorimetric microtiter plate reader (SpectraMax Plus 384; Molecular Devices).\n(§2) Cell viability assays—Cellular viability was determined using the CellTiter 96 Aqueous One Cell Proliferation Assay from Promega (Madison, Wis.) as described elsewhere (Marchetti et al, 2009). This assay contains a tertrazolium salt that is converted to formazan dye by the activity of mitochondrial dehydrogenases. The change in color imparted by this conversion was detected by measuring absorbance at 490 nm using a colorimetric microtiter plate reader (Spectramax Plus 384, Molecular Devices).\n(§3) Statistical analysis—Unless otherwise mentioned, results of all cell viability experiments represent the mean of three replicates of a representative experiment. The error bars indicate standard deviations. The means were compared using standard t-test and P values <0.05 were considered to be statistically significant."}, "[2]": {"system": "ARPE19 cells", "experiment": "UVB radiation induced damage, cell viability by MTS assay", "quoted_text": "Cell culture studies using RPE cells—For cell culture experiments human RPE cell line ARPE19 (ATCC # CRL 2302) purchased from American Type Culture Collection (Rockville, Md.) was used. Cells were maintained in DMEM F-12 supplemented with L-glutamine. The culture media also contained 10% fetal bovine serum, 100 units/ml penicillin and 100 ug/ml streptomycin at 37 C and 5% CO2. Cells from passages two to five were treated with either no drug or a range of concentrations of the experimental drugs prior to exposing them to oxidative stress. […] ARPE19 cells were plated in 96 well plates at a concentration of 10,000 cells/well. Change in cellular viability was measured using the MTS assay kit from Promega (Madison, Wis.).\nExposure of RPE cells to UVB radiation—For UV radiation assays, the ARPE19 cells were plated in 96 well plates. After 24 hours of incubation with or without our drug the cells were exposed to UVB light (Ultraspec 2000, Pharmacia Biotech) that emit wavelengths at a range of 290 nm to 370 nm. UVB light at intensities of either 800 mj/cm2 or 1200 mj/cm2 were used for our experiments. The duration of exposure of the two energy levels were determined using the formula: Hλ=t×Eλ, where Hλ is the energy level (J/cm2) t is the duration of exposure in seconds and the Eλ is the irradiance (W/cm2) of the UVB source. Irradiance was measured at 1.3 W/cm2, and the exposure times for energy levels of 800 mj/cm2 and 1200 mj/cm2 were calculated to be 9 minutes 14 seconds and 14 minutes 24 seconds, respectively. Immediately after the UVB exposure, the media was replaced with fresh complete DMEM F-12 medium and after 24 hours of incubation at 37° C. and 5% CO2, cellular viability was measured using the MTS assay.\nas §2, §3"}, "[3]": {"system": "Hsp27", "experiment": "Western blotting of preconditioning marker Hsp27 in ARPE19 cells", "type": "cell-based, human", "details": "RPE cells pretreated for 48 hours, 200 μM", "description": "(§1) Western blotting protocol—Western blotting was carried out on proteins isolated from ARPE19 cells cultured in 60 mm dishes with no drug or 200 μM sulindac or a combination of 200 μM sulindac and 2 μM chelerythrine. Actin and GAPDH were used as control for standardizing protein concentrations. Two late phase preconditioning markers, Hsp27 and iNOS were detected with antibodies (Sant Cruz Biotechnology)."}, "[4]": {"system": "BALB/c mice", "experiment": "Photooxidative stress in vivo study (light damage, intravitreal injection)", "description": "Photooxidative stress in vivo study—The procedures for the in vivo experiments conformed to the ARVO Statement for the Use of Animals in Ophthalmic and Vision Research and were approved by the IACUC at FAU. For the in vivo photooxidative stress experiments albino BALB/c mice were divided into two groups. Mice belonging to the control group were kept in normal light of 12 hr light/dark cycle and not injected with any drug. The animals of the experimental group were dark-adapted for 24 hours after which they were anesthetized with ketamine/xylazine and injected intravitrealy with sulindac, total volume injected was 2 μl in each eye. Concentration of injected sulindac was 0.094 μg/μl. To prepare our injection, the sulindac powder was first dissolved in Tris buffer (pH 8.0) at a concentration of 200 mM. This 200 mM stock was further diluted in sterile PBS to get the appropriate dilution required for the injections. The sulindac solution was injected into the right eye and PBS in the left eye. The animals in the experimental group received atropine for pupil dilation followed by exposure to continuous bright white light. The intensity and duration of light exposure was 6000 lux for 24 hours. Following light exposure, animals were kept in normal light cycle for 5 days prior to harvesting the ocular tissues for histological or biochemical analysis.\nBiochemical analysis of ocular tissues—After the completion of the treatment, animals were euthanized using isoflurane inhalation and eyes were enucleated. Following enucleation, the lenses were removed and retinas were carefully removed and washed in PBS. The retinas were homogenized in RIPA lysis buffer and total protein was isolated. The retinal protein was used for evaluation of preconditioning markers and rhodopsin through Western blotting.\nAnalysis of photoreceptor (PR) cell viability—The eyes were enucleated and fixed in 2.5% glutaraldehyde and 2% formaldehyde, bisected along the vertical meridian, embedded, and retinal sections at 50 microns obtained. Photoxidative stress-induced loss of PR cells was quantified in LM sections by counting the number of ONL nuceli from a series of digitized images of retinal sections."}, "[5]": {"system": "iNOS", "experiment": "Western blotting of preconditioning marker iNOS in ARPE19 cells", "type": "cell-based, human", "details": "RPE cells pretreated for 48 hours, 200 μM", "description": "as §1"}, "[6]": {"details": "inhibitor 2 uM added simultaneously with sulindac"}, "[7]": {"details": "eyes treated prior to light exposure"}, "[8]": {"details": "intravitreal 2 μl of 0.094 μg/μl before 6000 lux for 24 hours"}},
  "data": [
    {"molecule": "CCCCCC(O)CCCC(=O)O", "note": "(stereo not drawn) [5-HD, 5-hydroxydecanoic acid]", "values": [
      {"measurement": "reversal of sulindac's protective role against TBHP", "setting": "[1]; mK(ATP) channel blocker 50 uM or 75 uM co-incubated with sulindac", "value": "almost complete reversal"}
    ]},
    {"molecule": "CCC(=O)NC[C@H](Cc1ccc(OCCc2nc(-c3ccccc3)oc2C)cc1)N/C(C)=C\\C(=O)c1ccc(C(F)(F)F)cc1", "note": "[GW 6471]", "values": [
      {"measurement": "effect on sulindac's protection of RPE cells against TBHP induced stress", "setting": "[1]; PPAR alpha antagonist added with sulindac", "value": "prevented the protection"}
    ]},
    {"molecule": "O=c1c2nc(Br)n([C@@H]3O[C@@H]4CO[P@@](O)(=S)O[C@H]4[C@H]3O)c2nc2[nH]c(-c3ccccc3)cn12", "note": "[Rp-Br-8-PET-cGMPs]", "values": [
      {"measurement": "reversal of protection by sulindac preincubation (UVB damage) on PKG inhibition", "setting": "[2]; PKG inhibitor with sulindac", "value": "significantly reversed"}
    ]},
    {"molecule": "COc1ccc2c(c[n+](C)c3c4cc5c(cc4ccc23)OCO5)c1OC", "note": "[chelerythrine]", "values": [
      {"measurement": "reversal of protective effect of sulindac against TBHP damage", "setting": "[1]; [6]", "value": "significantly reversed the protective effect"},
      {"measurement": "reversal of protective effect of sulindac against UV damage", "setting": "[2]; [6]", "value": "significantly reversed the protective effect"}
    ]},
    {"molecule": "CC(=O)c1c(O)c(C)c(O)c(Cc2c(O)c3c(c(C(=O)/C=C/c4ccccc4)c2O)OC(C)(C)C=C3)c1O", "note": "[rottlerin]", "values": [
      {"measurement": "reversal of the sulindac protection against UVB", "setting": "[2]; inhibitor 3 uM with sulindac", "value": "no reversal"}
    ]},
    {"molecule": "CC1=C(CC(=O)O)c2cc(F)ccc2/C1=C\\c1ccc(S(C)(=O)=O)cc1", "note": "[sulindac sulfone]", "values": [
      {"measurement": "protection against UV damage (cell viability)", "setting": "[2]; 200 uM, in place of sulindac", "value": "complete protection"}
    ]},
    {"molecule": "CC1=C(CC(=O)O)c2cc(F)ccc2/C1=C\\c1ccc([S+](C)[O-])cc1", "note": "(stereo not drawn) [sulindac]", "values": [
      {"measurement": "protection against TBHP damage as measured by cell viability", "setting": "[1]; sulindac 125 uM", "value": "essentially complete protection"},
      {"measurement": "protection against TBHP damage as measured by cell viability", "setting": "[1]; sulindac 200 uM", "value": "essentially complete protection"},
      {"measurement": "induction of Hsp27", "setting": "[3]", "value": "significant induction"},
      {"measurement": "Hsp27 level in retinal total protein (Western blotting)", "setting": "[4]; [7]", "value": "upregulation"},
      {"measurement": "iNOS level in retinal total protein (Western blotting)", "setting": "[4]; [7]", "value": "upregulation"},
      {"measurement": "Rhodopsin levels by Western blotting, treated eye compared to PBS-treated eye", "setting": "[4]; [8]", "value": "higher"},
      {"measurement": "protection of photoreceptors against photooxidative stress induced loss of viability (histology)", "setting": "[4]; [8]", "value": "protection of photoreceptors"},
      {"measurement": "thickness of the photoreceptor cell nuclear layer, greater than PBS-treated eye", "setting": "[4]; intravitreal 2 μl of 0.094 μg/μl before 6000 lux for 24 hours, histological sections", "value": "about 40%"},
      {"measurement": "protection against UVB exposure (cell viability)", "setting": "[2]; 200 uM, 24 hours pretreatment, 1200 mj UVB", "value": "about 50%"},
      {"measurement": "induction of iNOS", "setting": "[5]", "value": "significant induction"}
    ]},
    {"molecule": "O=S(=O)(O)c1cc(O)c(O)c(S(=O)(=O)O)c1", "note": "[tiron]", "values": [
      {"measurement": "reversal of sulindac's protection against TBHP", "setting": "[1]; ROS scavenger 1 uM or 2 uM coincubated with sulindac", "value": "complete reversal"}
    ]}
  ]
}
